Experimental data published in publication PMC12644462, “A novel radiosensitizer α-sulfoquinovosyl-acylpropanediol (SQAP) inhibits DNA repair pathways and sensitize cells to cancer chemotherapeutic agents” (Scientific Reports, 2025).
Like-named read-outs stand apart in the source and are kept apart here.

Tests used:
[1] = system: HDAC1 expression; set-up: method as in PMID 33577659; conditions: hypoxic conditions ref 11; cited from earlier work
[2] = system: HR activity in HeLa DR-GFP cells; assay: DR-GFP DNA repair reporter assay; format: cell-based, human; conditions: 30 µM SQAP, p < 0.05
Description: (§1) HR and NHEJ activities were assessed using the DR-GFP reporter system[25] and the EJ5-GFP reporter system, respectively. pDRGFP and pCBASceI were gifts from Dr. Maria Jasin (Addgene plasmid #26475 and #26477). pimEJ5GFP was a gift from Dr. Jeremy Stark (Addgene plasmid # 44026). The assays were performed as previously described. Briefly, HeLa cells expressing DR-GFP, or EJ5-GFP were transfected with a plasmid encoding an I-SceI endonuclease using FuGENE HD transfection reagent (Promega, Madison, WI, USA). HR and NHEJ frequencies were analyzed by counting GFP positive cells with a FACS Lyric flow cytometer (BD Biosciences, San Jose, CA, USA) at 48 h post-transfection. Drug treatment was performed 3 h after transfection, and medium was replaced with the drug until FACS analysis. Relative HR and NHEJ efficiencies were calculated by normalizing to control cell values. A total of 50,000 cells were counted for each condition.

[3] = system: seven canine cancer cell lines; conditions: all seven cell lines
Description: Sensitivity to radiation or chemical reagents was assessed through colony formation assays. After trypsinized single cells were plated to form 20–200 colonies per dish and then treated with SQAP for 3 h in normoxia or hypoxia, the cells were irradiated. For drug sensitivity study, trypsinized cells were plated and then treated with various dosage of testing agents. After seven days of incubation, colonies were fixed, stained and scored. Regression curves were drawn from survival fraction, and D10 values (doses to achieve 10% cell survival) were calculated by Prism 8 (GraphPad software, San Diego, CA, USA) from at least three independent experiments. Oxygen enhancement ratio (OER) and sensitization enhancement ratio (SER) values were calculated from D10 values. OER values were calculated from the D10 value in hypoxia divided by the D10 value in normoxic condition. SER values were calculated from the D10 value without SQAP divided by the D10 value with SQAP.

[4] = system: NHEJ activity in HeLa EJ5-GFP cells; assay: EJ5-GFP DNA repair reporter assay; format: cell-based, human; conditions: 30 µM SQAP, p < 0.05
Description: as §1

[5] = system: CHO cells; assay: G2 premature chromosome condensation (PCC) assay; format: cell-based, Chinese hamster
Description: Following treatment with SQAP for 1 h, exponentially growing CHO cells were irradiated and treated with 50 nM of Calyculin A (Sigma-Aldrich) for 30 min as previously described. Cells were then fixed and stained as chromosome aberration analysis. Under a Zeiss Axioskop microscope, chromatid gaps, breaks, iso-breaks and exchanges were all scored as G2-PCC chromatid breaks. At least 50 PCC-spreads were scored in three independent experiments.

[6] = system: Chinese hamster V79 cells; assay: Colony formation assay, radio- and chemosensitization; format: cell-based; conditions: V79, gamma-rays, normoxic condition
[7] = system: seven canine cancer cell lines (Abrams, D17, Moresco, CML-6M, Jones, CML-10C2, STSA-1); assay: Colony formation assay, gamma-ray radiosensitization in normoxia or hypoxia; format: cell-based; conditions: 30 µM SQAP
Description: Irradiation was conducted by JL Shepard Mark I ^137Cs irradiator (nominal 6000 Ci) with dose rate of approximately 2.5 Gy per minute at room temperature. For hypoxia irradiation, cell cultures were placed in Aneropak Kenki system (Mitsubishi Gas Chemical, Tokyo, Japan) with oxygen meter to confirm pO2 below 0.1%. Cells were kept in hypoxia for 3 h before irradiation.

[8] = system: CHO cells; assay: Chromosome aberration assay; format: cell-based, Chinese hamster; conditions: G1-irradiated CHO cells, 4 Gy, with SQAP
Description: Two hours after mitotic shake-off and replating, CHO cells in the G1 phase were irradiated. After 10 h, colcemid was added for 6 h to collect metaphase cells. Chromosome spreads were prepared as sister chromatid exchange assay and stained with a 5% Giemsa stain. At least 50 metaphase spreads were scored in three independent experiments.

[9] = system: histone deacetylase 1 (HDAC1); set-up: method as in PMID 33577659; conditions: cited from earlier work
[10] = system: Chinese hamster V79 cells; assay: Colony formation assay, radio- and chemosensitization; format: cell-based
Description: For hypoxia irradiation, cell cultures were placed in Aneropak Kenki system (Mitsubishi Gas Chemical, Tokyo, Japan) with oxygen meter to confirm pO2 below 0.1%. Cells were kept in hypoxia for 3 h before irradiation.

[11] = system: CHO wild type, EM9, xrs5 and 51D1 cells; assay: Sister chromatid exchange assay; format: cell-based, Chinese hamster
Description: CHO cells were synchronized into G1 phase using mitotic shake-off method. Cells in the G1 phase were irradiated, and 10 µM of BrdU was added. After 20 h, colcemid was added for 6 h to arrest cells in metaphase. Collected cells were treated with hypotonic KCl solution and fixed using methanol: acetic acid (3:1) as the standard method. Metaphase chromosome spread was prepared on glass slides and treated with 5 µg/mL of Hoechst 33258 solution for 15 min and exposed to UVB for 15 min and treated with 2X SSC solution at 80 °C for 15 min. Cells were stained with 5% Giemsa stain solution. At least 50 metaphase spreads were analyzed for SCE scoring per experiment.

[12] = system: dogs and cats with cancer; conditions: dogs and cats with cancer receiving radiation therapy ref 8, 9; cited from earlier work
[13] = system: poly (ADP-ribose) glycohydrolase (PARG); set-up: method as in PMID 37973295; conditions: cited from earlier work

SMILES: CCCCCCCCCCCCCCCCCC(=O)OCCCO[C@H]1O[C@H](CS(=O)(=O)O)[C@@H](O)[C@H](O)[C@H]1O [SQAP, Alpha-sulfoquinovosylacyl-1,3-propanediol]
- HDAC1 expression [1]: reduces
- HR activity [2]: significantly reduced
- cytotoxicity of continuous exposure of SQAP (clonogenic survival) ([3]; 30 µM SQAP): tolerance
- cytotoxicity of continuous exposure of SQAP (clonogenic survival) ([3]; 60 µM SQAP): minimal cell viability
- NHEJ activity [4]: significantly reduced
- residual PCC levels ([5]; 1 Gy, after 2 h, with SQAP): ~4.8
- number of G2-PCC chromatid breaks ([5]; immediately after 1 Gy irradiation, SQAP-treated): approximately 10
- sensitization enhancement ratio (SER) [6]: 1.3
- changes in OER values with and without SQAP treatment [7]: not observed
- radiosensitization to gamma-ray exposure ([7]; both normoxic and hypoxia conditions): induced radiosensitization
- chromosome-type aberrations [8]: approximately 2.4
- HDAC1 enzymatic inhibition [9]: does not inhibit
- radiosensitization ([10]; V79, SQAP pretreatment alone): did not enhance radiation sensitivity
- radiosensitization ([10]; V79, continuous SQAP treatment before and after irradiation, normoxic and hypoxic): Radiosensitization was observed
- spontaneous sister chromatid exchange formation ([11]; 51D1 (rad51d mutant, HR deficient), non toxic SQAP concentrations): no reduction
- spontaneous sister chromatid exchange formation ([11]; CHO wild type, 5 to 20 µM SQAP, significant from 10 µM): reduced
- spontaneous sister chromatid exchange formation ([11]; EM9 (XRCC1 mutant), 5 to 20 µM SQAP, significant from 10 µM): reduced
- spontaneous sister chromatid exchange formation ([11]; xrs5 (Ku80 mutant), 5 to 20 µM SQAP, significant from 10 µM): reduced
- adverse systemic events [12]: not detected
- PARG inhibition [13]: inhibitory effect
